# Patent publication US20250304923A1, “Novel HIV-1 Variants And Their Methods Of Use In An Animal Challenge Model” (priority 2022, published 2025)
# Where two headings read alike, the source gives them in different places.
# Legend:
# virus stocks = test: Susceptibility of virus stocks to post-exposure prophylaxis drugs (VELA Diagnostics); settings: all virus stocks, prior to animal testing
# Description: Virus stocks and biologic samples from infected animals were handled with biosafety level 3 operating procedures within a biosafety level 2 physical facility. […] This ensured that any research personnel, in case of accidental exposure to viruses or virus-exposed animals, could be successfully treated with standard post-exposure protocols if necessary.
# [1] = test system: blood lymphocytes, NK cells, B cells, monocytes; test: Immune cell dynamics during dexamethasone administration (flow cytometry of blood); set-up: species or system owl monkeys; settings: monkey, in vivo
# Description: FIG. S8. […] In the top graph, the plasma viremia is reported for each of three animals over the course of the experiment. ND=no HIV-1 RNA detected. In the remainder of the rows, flow cytometry was performed on fresh Nancy Ma's owl monkey blood to enumerate the indicated cell types over the time course of infection. Antibodies: CD8 Invitrogen #MHCD0801; CD4 BD #550631; CD3 BD #563916 or #563918; CD20 BD #340941; CD16 BD #563892; CD14 BD #557923.
# There are other data to support this. In a few animals, Applicants observe undetectable viremia after the acute phase, like elite controllers (one such animal shown in FIG. S29A). Set point viremia in these animals is below 80 HIV-1 RNA copies per mL, our assay LoQ.
# [2] = set-up: species or system Nancy Ma's owl monkeys; settings: monkey, in vivo
# Description for HIVnom: Two Nancy Ma's owl monkeys were intravenously injected with 1.3×10^6 infectious units of HIVnom1 and another two with 2.1×10^6 infectious units of HIVnom2 (FIG. 2a). Blood was drawn weekly for up to 30 weeks, with the “0” timepoint taken from the leg opposite to the site of virus injection five minutes after inoculation. Blood samples were sent to the University of Washington Clinical Retrovirology Laboratory (a human clinical diagnostics lab in Seattle, WA, USA) for determination of plasma viremia by RT-qPCR.
# Treatment consisted of a once-daily subcutaneous injection. […] Study animals were maintained at 6 mg/kg for an additional 1-2 weeks.
# Plasma vRNA quantification was performed by the commercial human diagnostic services at the University of Washington Retrovirology Laboratory (UWRL; Department of Laboratory Medicine, Seattle, WA, USA) using the Abbott RealTime HIV-1 RNA assay (Abbot #06L18-090) in conjunction with RT-qPCR instrumentation, practices, and procedures standard to that laboratory. Briefly, 500 μL of frozen EDTA owl monkey plasma were submitted for analysis and then diluted to 1 mL by the laboratory prior to processing. The range of vRNA quantitation for the assay is 40-10,000,000 HIV-1 genomes/mL when using undiluted samples, although the range of vRNA reported in this study was 80-20,000,000 HIV-1 genomes per mL due to the dilution required for the animal samples. The laboratory reported four possible outcomes: 1) virus detected and a vRNA quantification in HIV-1 genomes/mL; 2) virus detected but numbers were below the lower limit of quantification (<80 HIV-1 genomes/mL); 3) virus detected but the numbers were above the upper limit of quantification (>20 million HIV-1 genomes/mL); 4) virus not detected. The vRNA assay was performed for each animal prior to the start of the study, on the day of exposure (day 0), and on multiple days throughout the study (File S1).
molecule,measurement,setting,value
Nc1nc(=O)n([C@@H]2CS[C@H](CO)O2)cc1F [emtricitabine],susceptibility of virus stocks to drug,virus stocks,susceptible
Cc1nnc(C(=O)NC(C)(C)c2nc(C(=O)NCc3ccc(F)cc3)c(O)c(=O)n2C)o1 [raltegravir],susceptibility of virus stocks to drug,virus stocks,susceptible
C[C@H](Cn1cnc2c(N)ncnc21)OCP(=O)(O)O [tenofovir],susceptibility of virus stocks to drug,virus stocks,susceptible
Dexamethasone sodium phosphate,depletion of blood immune cells,[1],"reversibly depleting blood lymphocytes, NK cells, and B cells, but not monocytes"
same,hypokalemia,[2],mild hypokalemia noted to occur in some animals
same,peak rebound viremia upon dexamethasone treatment,HIVnom; animal BO,92 HIVnom genomes per mL
same,peak rebound viremia upon dexamethasone treatment,HIVnom; animal JI,258 HIVnom genomes per mL
same,peak rebound viremia upon dexamethasone treatment,HIVnom; animal KI,612 HIVnom genomes per mL
same,peak rebound viremia upon dexamethasone treatment,HIVnom; animal RI,"18,220 HIVnom genomes per mL"
same,virus rebound in blood during dexamethasone treatment,"HIVnom; three of the four animals infected with HIVnom1 or HIVnom2, subcutaneous, several weeks",virus rebounded into the blood to detectable levels
